From patent US20060030585A1, “Tricyclic delta-opioid modulators” (priority 2004, published 2006)
Values joined by “and” are separate entries in the source; they are usually repeats but may differ in a detail not shown here. Equal values may be shown once. Read-outs that look alike come from different tables or passages of the source.

Columns and labels:
[1] = target: delta opioid receptor (Rattus norvegicus, UniProt P33533); assay: Rat brain delta opioid receptor binding assay ([3H]DPDPE); details: Rat delta opioid receptor binding constant, rat forebrain membranes, ~4 nM [3H]DPDPE
Protocol: Rat Brain Delta Opioid Receptor Binding Assay
Procedure: Male, Sprague Dawley rats (150-250 g, VAF, Charles River, Kingston, N.Y.) were killed by CO2, and their brains removed and placed immediately in ice cold Tris HCl buffer (50 mM, pH 7.4). The forebrains were separated from the remainder of the brain by a coronal transection, beginning dorsally at the colliculi and passing ventrally through the midbrain-pontine junction. After dissection, the forebrains were homogenized in Tris buffer in a Teflon®-glass homogenizer. The homogenate was diluted to a concentration of 1 g of forebrain tissue per 80 mL Tris and centrifuged at 39,000×g for 10 min. The pellet was resuspended in the same volume of Tris buffer containing 5 mM MgCl2 with several brief pulses from a Polytron homogenizer. This particulate preparation was used for the delta opioid binding assays. Following incubation with the delta selective peptide ligand ˜4 nM [^3H]DPDPE at 25° C. for 2.5 h in a 96-well plate with total volume of 1 mL, the plate contents were filtered through Wallac filtermat B sheets on a Tomtec 96-well harvester. The filters were rinsed three times with 2 mL of 10 mM HEPES (pH 7.4), and dried in a 650 W microwave oven for 1.75 min twice. To each sample area 2×50 μL of Betaplate Scint scintillation fluid (LKB) was added and the radioactivity quantified on a LKB (Wallac) 1205 BetaPlate liquid scintillation counter.
(§1) Analysis: The data from the scintillation counter were used to calculate either the % inhibition compared to control binding (when only a single concentration of test compound was evaluated) or a Ki value (when a range of concentrations was tested). Percent inhibition was calculated as: [(total dpm-test compound dpm)/(total dpm-nonspecific dpm)]*100. Kd and Ki values were calculated using GraphPad PRISM data analysis program.

[2] = target: mu opioid receptor (Rattus norvegicus, UniProt P33535); assay: Rat brain mu opioid receptor binding assay ([3H]DAMGO); details: Rat mu opioid receptor binding constant, rat forebrain membranes, ~0.8 nM [3H]DAMGO
Protocol: Rat Brain Mu Opioid Receptor Binding Assay
Procedure: Male, Sprague Dawley rats (150-250 g, VAF, Charles River, Kingston, N.Y.) were killed by CO2, and their brains removed and placed immediately in ice cold Tris HCl buffer (50 mM, pH 7.4). The forebrains were separated from the remainder of the brain by a coronal transection, beginning dorsally at the colliculi and passing ventrally through the midbrain-pontine junction. After dissection, the forebrains were homogenized in Tris buffer in a Teflon®-glass homogenizer. The homogenate was diluted to a concentration of 1 g of forebrain tissue per 80 mL Tris and centrifuged at 39,000×g for 10 min. The pellet was resuspended in the same volume of Tris buffer containing 5 mM MgCl2 with several brief pulses from a Polytron homogenizer. This particulate preparation was used for the delta opioid binding assays.
as §1, with “concentrations” for “concentrations was”

[3] = target: T1, delta opioid receptor (NG108-15 cell membranes) (Mus musculus, UniProt P32300); assay: [35S]GTPγS binding assay in NG108-15 cell membranes (delta opioid); type: biochemical; details: agonist-stimulated [35S]GTPγS binding
T1 construct: NG108-15 cell membranes were purchased from Applied Cell Sciences (Rockville, Md.); host or cells: NG108-15 cell membranes (purchased)
Protocol: [^35S]GTPγS Binding Assay in NG108-15 Cell Membranes (delta opioid)
Methods: NG108-15 cell membranes were purchased from Applied Cell Sciences (Rockville, Md.). 8 mg/mL of membrane protein suspended in 10 mM TRIS-HCl pH 7.2, 2 mM EDTA, 10% sucrose. Membranes were maintained at 4-8° C. A 1 mL volume of membranes was added into 10 mL cold binding assay buffer. The assay buffer contained 50 mM Tris, pH 7.6, 5 mM MgCl2, 100 mM NaCl, 1 mM DTT and 1 mM EGTA. The membrane suspension was homogenized twice with a Polytron, and centrifuged at 3000 rpm for 10 min. The supernatant was then centrifuged at 18,000 rpm for 20 min. Ten mL assay buffer was added into the pellet containing tube. The pellet and buffer were mixed with a Polytron.
Incubation procedure: The pellet membranes (75 μg/mL) were preincubated with SPA (10 mg/mL) at 25° C. for 45 min in the assay buffer. […] GTPγS in the same Tris buffer containing 100 μM GDP in total volume of 200 μL. Increasing concentrations of receptor agonists were used to stimulate [35S]-GTPγS binding. The basal binding was tested in the absence of agonists and non-specific binding was tested in the presence of 10 μM unlabeled GTPγS. The data were analyzed on a Packard Top Count.
% of Basal=(stimulated−non specific)*100/(basal−non specific). EC50 value values were calculated using GraphPad Prism.

[4] = target: T2, hMOR (CHO-hMOR cell membranes) (Homo sapiens, UniProt P35372); assay: [35S]GTPγS binding assay in CHO-hMOR cell membranes; type: biochemical
T2 construct: host or cells: CHO cells expressing hMOR (purchased membranes)
Protocol: [^35]GTPγS Binding Assays in CHO-hMOR Cell Membranes
Methods: CHO-hMOR cell membranes were purchased from Receptor Biology, Inc. (Baltimore, Md.). About 10 mg/mL of membrane protein was suspended in 10 mM TRIS-HCl pH 7.2, 2 mM EDTA, 10% sucrose, and the suspension kept on ice. A 1 mL volume of membranes was added to 15 mL cold binding assay buffer containing 50 mM HEPES, pH 7.6, 5 mM MgCl2, 100 mM NaCl, 1 mM DTT and 1 mM EDTA. The membrane suspension was homogenized with a Polytron and centrifuged at 3,000 rpm for 10 min. The supernatant was then centrifuged at 18,000 rpm for 20 min. The pellet was resuspended in 10 mL assay buffer with a Polytron. The membranes were preincubated with wheat germ agglutinin coated SPA beads (Amersham) at 25° C. for 45 min in the assay buffer. The SPA bead (5 mg/mL) coupled membranes (10 μg/mL) were then incubated with 0.5 nM [^35S]GTPγS in the assay buffer. […] A range of concentrations of receptor agonist was used to stimulate [35S]GTPγS binding. Both basal and non-specific binding was tested in the absence of agonist; non-specific binding determination included 10 μM unlabeled GTPγS.
Compounds were tested for function as antagonists by evaluating their potential to inhibit agonist-stimulated GTPγS binding. Radioactivity was quantified on a Packard TopCount. The following parameters were calculated: [formula] [formula]
EC50 values were calculated using GraphPad Prism.

[5] = DOR GTPγS EC50, NG108-15 cell membranes
[6] = NG108-15 cell membranes, read-out: DOR GTPγS EC50
[7] = CHO-hMOR cell membranes, [35S]GTPγS binding, read-out: hMOR GTPγS EC50

T1 sequence (P32300 whole entry): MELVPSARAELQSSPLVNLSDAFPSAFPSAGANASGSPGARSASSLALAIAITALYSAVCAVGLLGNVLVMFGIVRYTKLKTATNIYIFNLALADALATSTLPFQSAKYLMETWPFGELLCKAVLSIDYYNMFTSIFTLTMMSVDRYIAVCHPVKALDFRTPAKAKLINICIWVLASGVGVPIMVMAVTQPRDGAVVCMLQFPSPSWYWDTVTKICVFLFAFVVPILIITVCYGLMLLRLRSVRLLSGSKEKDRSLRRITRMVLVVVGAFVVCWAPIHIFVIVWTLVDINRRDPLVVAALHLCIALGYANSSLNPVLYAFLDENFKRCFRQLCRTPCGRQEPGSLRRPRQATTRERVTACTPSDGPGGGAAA
delta opioid receptor, sequence (P33533 whole entry): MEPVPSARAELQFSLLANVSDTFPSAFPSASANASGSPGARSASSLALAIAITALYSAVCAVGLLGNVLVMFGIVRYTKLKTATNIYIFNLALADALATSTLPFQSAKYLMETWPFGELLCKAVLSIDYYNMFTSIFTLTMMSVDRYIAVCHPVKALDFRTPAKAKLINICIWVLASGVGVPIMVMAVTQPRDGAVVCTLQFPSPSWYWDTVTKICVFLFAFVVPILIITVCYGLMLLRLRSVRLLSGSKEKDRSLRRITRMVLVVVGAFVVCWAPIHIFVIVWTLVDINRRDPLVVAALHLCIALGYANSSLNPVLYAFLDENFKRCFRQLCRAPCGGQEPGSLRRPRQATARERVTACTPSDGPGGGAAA
T2 sequence (P35372 whole entry): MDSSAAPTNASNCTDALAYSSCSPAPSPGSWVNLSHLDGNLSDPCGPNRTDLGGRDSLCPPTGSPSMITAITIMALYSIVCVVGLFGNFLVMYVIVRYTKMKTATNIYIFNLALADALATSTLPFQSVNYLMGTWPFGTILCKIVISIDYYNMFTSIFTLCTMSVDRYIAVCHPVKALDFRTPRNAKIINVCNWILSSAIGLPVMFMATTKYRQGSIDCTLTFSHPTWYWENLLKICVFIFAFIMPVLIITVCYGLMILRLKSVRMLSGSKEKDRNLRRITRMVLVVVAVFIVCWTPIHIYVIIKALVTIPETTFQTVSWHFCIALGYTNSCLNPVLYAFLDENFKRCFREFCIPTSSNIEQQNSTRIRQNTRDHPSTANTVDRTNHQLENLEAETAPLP
mu opioid receptor, sequence (P33535 whole entry): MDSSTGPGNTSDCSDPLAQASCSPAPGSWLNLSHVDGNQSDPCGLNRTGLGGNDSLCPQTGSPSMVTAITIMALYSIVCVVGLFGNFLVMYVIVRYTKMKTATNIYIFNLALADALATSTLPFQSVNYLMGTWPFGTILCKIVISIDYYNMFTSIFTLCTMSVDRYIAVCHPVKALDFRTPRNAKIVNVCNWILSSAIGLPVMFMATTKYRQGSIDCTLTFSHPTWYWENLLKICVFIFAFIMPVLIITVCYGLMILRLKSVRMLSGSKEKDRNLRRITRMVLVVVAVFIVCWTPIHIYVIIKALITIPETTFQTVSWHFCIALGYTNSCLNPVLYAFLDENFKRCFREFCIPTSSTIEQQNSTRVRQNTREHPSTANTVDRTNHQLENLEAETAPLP

SMILES | Ki ([1]; DOR Ki) [nM] | Ki ([2]; MOR Ki) [nM] | EC50 [3, 5] | Ki ([1]; read-out: DOR Ki) [nM] | Ki ([2]; read-out: MOR Ki) [nM] | EC50 [3, 6] [nM] | EC50 [4] [nM] | EC50 [4, 7] [nM]
O=C(NC(CO)Cc1ccccc1)c1ccc2c(c1)Oc1ccccc1C2=C1CC2CCC(C1)N2 (single isomer, unassigned) [Cpd 15] | 27.5 | 414 | 79 nM | – | – | – | – | –
c1ccc2c(c1)Sc1cc(-c3nnn[nH]3)ccc1C2=C1C[C@H]2CC[C@@H](C1)N2 (single isomer, unassigned) [Cpd 103, (1SR,5RS)-3-[3-(1H-tetrazol-5-yl)-thioxanthen-9-ylidene]-8-aza-bicyclo[3.2.1]octane] | 10.1 | 329 | 49.6 nM | – | – | – | – | –
c1ccc2c(c1)Oc1cc(-c3nnn[nH]3)ccc1C2=C1CC2CCC(C1)N2 [Cpd 1, 3-[3-(1H-Tetrazol-5-ly)-xanthen-9-ylidene]-8-aza-bicyclo[3.2.1]octane] | 1.99 | 637 | 189 nM and 70.3 nM | – | – | – | – | –
CC(=O)Nc1ccccc1-c1ccc2c(c1)Oc1ccccc1C2=C1CC2CCC(C1)N2 [Cpd 2, N-{2-[9-(8-Aza-bicyclo[3.2.1]oct-3-ylidene)-9H-xanthen-3-yl]-phenyl}-aceta-mide] | 4.36 | 1140 | 394 nM | – | – | – | – | –
O=c1[nH]c(-c2ccc3c(c2)Oc2ccccc2C3=C2CC3CCC(C2)N3)no1 [Cpd 4, 3-[9-(8-Aza-bicyclo[3.2.1]oct-3-ylidene)-9H-xanthen-3-yl]-4H-[1,2,4]oxadiazol-5-one] | 6.78 | 768 | 128 nM | – | – | – | – | –
S=c1[nH]c(-c2ccc3c(c2)Oc2ccccc2C3=C2CC3CCC(C2)N3)no1 [Cpd 5, 3-[9-(8-Aza-bicyclo[3.2.1]oct-3-ylidene)-9H-xanthen-3-yl]-4H-[1,2,4]oxadiazole-5-thione] | 6.89 | 1020 | 104 nM | – | – | – | – | –
O=C(c1ccc2c(c1)Oc1ccccc1C2=C1CC2CCC(C1)N2)N1CCCC1 [Cpd 6, [9-(8-Aza-bicyclo[3.2.1]oct-3-ylidene)-9H-xanthen-3-yl]-pyrrolidin-1-yl-methanone] | 7.4 | 1400 | 59 nM | – | – | – | – | –
COCCN(C)C(=O)c1ccc2c(c1)Oc1ccccc1C2=C1CC2CCC(C1)N2 [Cpd 7] | 7.63 | 1810 | 173 nM | – | – | – | – | –
O=c1[nH]c(-c2ccc3c(c2)Oc2ccccc2C3=C2CC3CCC(C2)N3)ns1 [Cpd 8, 3-[9-(8-Aza-bicyclo[3.2.1]oct-3-ylidene)-9H-xanthen-3-yl]-4H-[1,2,4]thiadiazol-5-one] | 10.8 | 1080 | 359 nM | – | – | – | – | –
O=C(NCc1cccc(F)c1)c1ccc2c(c1)Oc1ccccc1C2=C1CC2CCC(C1)N2 [Cpd 11] | – | – | – | 18.5 | 739 | 209 | – | –
c1cncc(-c2ccc3c(c2)Oc2ccccc2C3=C2CC3CCC(C2)N3)c1 [Cpd 12, 3-(3-Pyridin-3-yl-xanthen-9-ylidene)-8-aza-bicyclo[3.2.1]octane] | 24 | 2130 | 587 nM | – | – | – | 0.47 | –
Cc1cccc(C)c1OCC(C)NC(=O)c1ccc2c(c1)Oc1ccccc1C2=C1CC2CCC(C1)N2 (stereo not shown) [Cpd 13] | 23.6 | – | – | – | 2920 | 641 | – | –
Cn1nnc(-c2ccc3c(c2)Oc2ccccc2C3=C2CC3CCC(C2)N3)n1 [Cpd 16, 3-[3-(2-Methyl-2H-tetrazol-5-yl)-xanthen-9-ylidene]-8-aza-bicyclo[3.2.1]octane] | 30 | 1460 | 573 nM | – | – | – | 0.48 | –
COc1cccc2c1Oc1cc(-c3cccnc3)ccc1C2=C1CC2CCC(C1)N2 [Cpd 71] | – | – | – | 5.7 | 1140 | 1940 | – | –
c1ccc2c(c1)Oc1cc(-c3nnn[nH]3)ccc1C2=C1CC2CCC(C1)N2 [Cpd 80] | – | – | – | – | – | 226 | – | –
COc1cccc2c1Oc1cc(-c3nnn[nH]3)ccc1C2=C1CC2CCC(C1)N2 [Cpd 82] | – | – | – | 5.6 | 307 | 88.4 | – | –
Oc1cccc2c1Oc1cc(-c3nnn[nH]3)ccc1C2=C1CC2CCC(C1)N2 [Cpd 90] | – | – | – | – | – | 0.7 | – | 90
O=c1[nH]c(-c2ccc3c(c2)Oc2ccccc2C3=C2CC3CCC(C2)N3)no1 [Cpd 91] | – | – | – | 0.76 | > 10000 | 72.2 | – | –
O=c1[nH]c(-c2ccc3c(c2)Oc2ccccc2C3=C2CC3CCC(C2)N3)no1 [Cpd 92] | – | – | – | 0.07 | 502 | 102 | – | –
S=c1[nH]c(-c2ccc3c(c2)Oc2ccccc2C3=C2CC3CCC(C2)N3)no1 [Cpd 93] | – | – | – | 0.37 | 3740 | 631 | – | –
S=c1[nH]c(-c2ccc3c(c2)Oc2ccccc2C3=C2CC3CCC(C2)N3)no1 [Cpd 94] | – | – | – | 0.04 | 219 | 126 | – | –
O=c1[nH]c(-c2ccc3c(c2)Oc2ccccc2C3=C2CC3CCC(C2)N3)ns1 [Cpd 101] | – | – | – | 7 | 465 | 281 | – | –
COc1cccc2c1Oc1cc(-c3ccccc3NC(C)=O)ccc1C2=C1CC2CCC(C1)N2 [Cpd 108] | – | – | – | 33.9 | 426 | 117 | – | –
Oc1cccc2c1Oc1cc(-c3cnc4ccccc4c3)ccc1C2=C1CC2CCC(C1)N2 [Cpd 109] | – | – | – | 2.22 | 31 | 94.2 | – | 1230
CCN(CC)C(=N)c1ccc2c(c1)Oc1ccccc1C2=C1CC2CCC(C1)N2 [Cpd 125] | 6.3 | 2050 | 78.3 nM | – | – | – | > 10000 | –
